By Papp A→B is commonly meant how fast a substance crosses the layer from the apical side.

Read-outs that look alike come from different tables or passages of the source.

The source of these data is patent US12054746B2, “Method for inducing differentiation of pluripotent stem cells into intestinal epithelial cells” (PUBLIC UNIVERSITY CORPORATION NAGOYA CITY UNIVERSITY, priority 2018, dated 2024).

Data set [1] in a line: in vitro. Conditions: human, Caco-2. On the procedure:
(§1) HESS (pH 6.5) was added to a chamber on the apical side of human iPS cell-derived small intestinal epithelial cells and Caco-2 cells seeded on Cell culture insert, HBSS (pH 7.4) was added to a chamber on the basal side, and pre-incubated at 37° C. for 60 minutes. […] A sample was collected from the receiver chamber every 15 minutes. The unchanged substance was measured using UPLC-MS/MS. Fa·Fg in humans was referred from, previous reports (References 1 to 6 below). • Reference 1: Takenaka T, Harada N, Kuze J, Chiba M, Iwao T, Matsunaga T. Human small intestinal epithelial cells differentiated from adult intestinal stem cells as a novel system for predicting oral drug absorption in humans. Drug Metab Dispos. […] Expert Opin Drug Metab Toxicol.

Data set [2] in a line: in vitro. Conditions: human. On the procedure: (§2) Human iPS cells (FF-1) were treated with a serum-free medium containing 100 ng/mL activin A for 24 hours to initiate differentiation. […] Thereafter, the cells were cultured in Advanced DMEM/F-12 containing 2% FBS, 1% GlutaMax, 100 units/mL penicillin G, 100 μg/mL streptomycin sulfate, and 250 ng/mL FGF2 for 96 hours to differentiate into small intestine stem cells. The small intestine stem cell-like cells after the treatment with activin A and FGF2 were detached with Aecutase and seeded on GFR Matrigel which was diluted 30-fold with human iPS medium in advance. After seeding, the cells were cultured for 19 to 23 days in Advanced DMEM/F-12 containing 2% FBS, 0.1 mM NEAA, 2 mM L-Glu, 100 units/mL penicillin G, 100 μg/mL streptomycin sulfate, 2% B27 supplement, 1% N2 supplement, 1% HepExtend supplement, 20 ng/mL EGF, and 30 μM Forskolin. From 12 to 16 days before the end of differentiation, differentiation into small intestinal epithelial cells was induced was by adding PD98059 to 20 μM, 5-aza-2′-deoxycytidine (5-aza-2′-dC) to 5 μM, and A-83-01 to 0.5 μM.
as §1

For data set [3] the following is noted: cited from earlier work.
Data set [4] deals with intestinal epithelial cell-like cells derived from human iPS cells. Nature of the data set: Drug metabolism experiment (CYP3A4 and UGT activity) in intestinal epithelial cell-like cells derived from human iPS cells. To be noted: experiment 4, FF-1, Forskolin instead of 8-Br-cAMP from day 12 (FIG. 10). The data set is classed as cell-based.
Description: In experiment 3, the FF-1 strain was cultured for 5 days (day 0 to 5) to induce differentiation into endoderm, 4 days (day 5 to 9) to induce differentiation into intestinal stem cells, and 18 days (day 10 to 28) to induce differentiation into intestinal epithelial cells. In experiment 4, the FF-1 strain was cultured for 7 days (day 0 to 7) to induce differentiation into endoderm, 4 days (day 7 to day 11) to induce differentiation into intestinal stem cells, and 18 days (day 12 to day 30) to induce differentiation into intestinal epithelial cells. […]
After completing the differentiation induction, the differentiated cells were cultured at 37° C. in a culture medium (DMEM/F12 containing 1% Glutamax, 1% NEAA, 1% N2 supplement, 100 units/mL penicillin G, 100 μg/mL streptomycin, and 20 ng/mL EGF) containing 5 μmol/L midazolam and 10 μmol/L 7-hydroxycoumarin, and the culture medium was sampled after 24 hours (experiments 3 and 4) or 2 hours (experiment 5). The metabolic activity was calculated from the amount of 1-hydroxymidazolam or 7-hydroxycoumarin glucuronide in the culture medium, which was measured using a liquid chromatography-mass spectrometer (LC-MS/MS). After completing the metabolic experiment, protein quantification was performed, and the metabolic activity was corrected with the amount of protein.
The test system of another data set is human iPS cells. Nature of the data set: Marker gene expression (real-time RT-PCR) after induction of differentiation of human iPS cells into intestinal epithelial cells. Format: cell-based. On the procedure: Induction of differentiation of human iPS cells into intestinal epithelial cells was started in a state where undifferentiated colonies of the human iPS cells accounted for about 70% of the culture dish. […] was induced to differentiate into endoderm by culturing for two days in Roswell Park Memorial Institute (RPMI)+Glutamax medium containing 0.5% FBS, 100 ng/mL activin A, 100 units/mL penicillin G, and 100 μg/mL streptomycin and then culturing for one day in RPMI+Glutamax medium, containing 2% FBS, 100 ng/mL activin A, 100 units/ml penicillin G, and 100 μg/mL streptomycin. Then, the cells were cultured in DMEM/F12 containing 2% FBS, 1% Glutamax, and 250 ng/mL FGF2 for 4 days to induce differentiation into intestinal stem cells. After this treatment, Y-27632 (Rho-binding kinase inhibitor) was added so that the concentration was 10 μmol/L, and the cells treated at 37° C. for 60 minutes in a CO2 incubator under the condition of 5% CO2/95% air were treated with actase for detaching. The detached cells were seeded on a 24-well cell culture plate coated with Matrigel which was diluted 30-fold with a human iPS cell culture medium and from which growth factors was removed. […]
Background: Quantitative PCR measures a nucleic acid by following its amplification.

The next data set concerns Caco-2 cells. Nature of the data set: in vitro. On the procedure: as §1
The subject of data set [5] is human iPS cell-derived small intestinal epithelial cells. Kind of data set: in vitro. On the procedure: as §2, §1
The mark [6] stands for this setting: in humans, from References 1 to 6.

As for `CCCC(=O)Nc1ccc(OCC(O)CNC(C)C)c(C(C)=O)c1` (stereo not shown) [Acebutolol, acebutolol], the Papp A→B at 60 min in “in vitro [1]” was 0.35 ×10⁻⁶ cm/s; in the data set “in vitro [2]”, 2.3 ×10⁻⁶ cm/s.
`Cc1cc(=O)n(-c2ccccc2)n1C` [Antipvrine, antipyrine] yielded an apical-to-basolateral permeability (Papp A→B) at 60 min in “in vitro [2]” of 55.6 ×10⁻⁶ cm/s.
Still for that read-out and setting: under `Cn1c(=O)c2c(ncn2C)n(C)c1=O` [Caffeine, caffeine] stands 52.4 ×10⁻⁶ cm/s.
Regarding `CCOC(=O)[C@H](CCc1ccccc1)N[C@@H](C)C(=O)N1CCC[C@H]1C(=O)O` [Enalapril, enalapril], the Papp A→B at 60 min was found to be 0.19 ×10⁻⁶ cm/s in “in vitro [1]” and 1.93 ×10⁻⁶ cm/s in the data set “in vitro [2]”. In addition, the Fa · Fg/100 in data set [3] (setting [6]) is 0.6.
As to `CC[C@H]1OC(=O)[C@H](C)[C@@H](O[C@H]2C[C@@](C)(OC)[C@@H](O)[C@H](C)O2)[C@H](C)[C@@H](O[C@@H]2O[C@H](C)C[C@H](N(C)C)[C@H]2O)[C@](C)(O)C[C@@H](C)C(=O)[C@H](C)[C@@H](O)[C@]1(C)O` [Erythromycin, erythromycin], the values for the Papp A→B at 60 min in “in vitro [1]” and in the data set “in vitro [2]” were 0.45 ×10⁻⁶ cm/s and 1.24 ×10⁻⁶ cm/s, respectively.
As to `C=C[C@@]1(C)CC(=O)[C@]2(O)[C@@]3(C)[C@@H](O)CCC(C)(C)[C@@H]3[C@H](O)[C@H](OC(C)=O)[C@@]2(C)O1` [Forskolin], the CYP3A4 activity result in data set [4] was “further significant increase”. In the data set on human iPS cells (experiment 1, Windy, compared with 8-Br-cAMP), the “effect on the expressions of CYP3A4 and ABCB1/MDR1” value is listed as “drastically exceeded that of 8-Br-cAMP”. In addition, the “expression level of CYP3A4 and SGLT1” value with human iPS cells (experiment 2, Windy, Forskolin alone day 8 to 26, vs 8-Br-cAMP and IBMX in combination (FIG. 5)) is reported as “significantly increased”.
As for `NS(=O)(=O)c1cc2c(cc1Cl)NCNS2(=O)=O` [Hydrochlorothiazide, hydrochlorothiazide], the values for the Papp A→B at 60 min in the data set “in vitro [1]” and in “in vitro [2]” were 2.44 ×10⁻⁶ cm/s and 4.4 ×10⁻⁶ cm/s, respectively. Moreover, the Fa · Fg/100 in data set [3] (setting [6]) is 0.67.
Regarding `CN(C)C(=N)N=C(N)N` [Metformin, metformin], the Papp A→B at 60 min in the data set “in vitro [1]” stood at 0.52 ×10⁻⁶ cm/s; in “in vitro [2]” it was 2.43 ×10⁻⁶ cm/s. The Fa · Fg/100 in data set [3] (setting [6]) was 0.71.
`Cc1ncc2n1-c1ccc(Cl)cc1C(c1ccccc1F)=NC2` [Midazolam, midazolam]: the figures for the Papp A→B in the data set “in vitro [1]” and in “in vitro [2]” were 38.7 ×10⁻⁶ cm/s and 48.3 ×10⁻⁶ cm/s, respectively. Moreover, the Fa · Fg/100 in data set [3] (setting [6]) is 0.369.
With `NC(=O)c1ncn([C@@H]2O[C@H](CO)[C@@H](O)[C@H]2O)n1` [Ribavirin, ribavirin], the Papp A→B at 60 min in “in vitro [1]” came to 0.32 ×10⁻⁶ cm/s; in the data set “in vitro [2]”, 3.3 ×10⁻⁶ cm/s. Moreover, the Fa · Fg/100 in data set [3] (setting [6]) was 0.85.
In the case of `CCN1CCCC1CNC(=O)c1cc(S(N)(=O)=O)ccc1OC` (stereo not shown) [Sulpiride, sulpiride], the apical-to-basolateral permeability (Papp A→B) at 60 min in “in vitro [2]” amounted to 1.45 ×10⁻⁶ cm/s.
Consider `C=CC[C@@H]1/C=C(\C)C[C@H](C)C[C@H](OC)[C@H]2O[C@@](O)(C(=O)C(=O)N3CCCC[C@H]3C(=O)O[C@H](/C(C)=C/[C@@H]3CC[C@@H](O)[C@H](OC)C3)[C@H](C)[C@@H](O)CC1=O)[C@H](C)C[C@@H]2OC` [Tacrolimus, tacrolimus], for which the values for the Papp A→B at 60 min in “in vitro [1]” and in the data set “in vitro [2]” were 12.3 ×10⁻⁶ cm/s and 14.3 ×10⁻⁶ cm/s, respectively. In data set [3] (setting [6]), the Fa · Fg/100 is 0.136.
On to lucifer yellow, for which the Papp A→B in the data set with Caco-2 cells turned out to be 0.06 ×10⁻⁶ cm/s; in data set [5], 0.3 ×10⁻⁶ cm/s. For the same compound, the Fa · Fg/100 in data set [3] (in vivo) is 0.
